Measurements as given in the NIST ThermoML archive (doi:10.1016/j.jct.2012.08.020).

Assay: xn = mol fraction of the nth substance listed
Conditions: Fluid (supercritical or subcritical phases)

CCCCC(COC(=O)C(=O)OCC)OC(=O)C(=O)OCC (stereo not given) [1,2-hexanediol bis-(ethoxycarbonylformate)] + O=C=O
Conditions	mass density [kg/m3]
313 K, x1 = 0.00125	556.08
313 K, x1 = 0.00238	584.52
313 K, x1 = 0.00345	606.4
313 K, x1 = 0.00447	624.05
313 K, x1 = 0.00552	631.74
333 K, x1 = 0.00179	389.65
333 K, x1 = 0.00331	420.8
333 K, x1 = 0.00471	443.89
333 K, x1 = 0.00608	458.89
333 K, x1 = 0.00748	466.23
353 K, x1 = 0.00251	277.12
353 K, x1 = 0.00456	305.62
353 K, x1 = 0.00632	331.22
353 K, x1 = 0.00821	339.94
353 K, x1 = 0.00988	353.15

CCCCC(COC(=O)C(=O)OC)OC(=O)C(=O)OC (stereo not given) [1,2-hexanediol bis-(methoxycarbonylformate)] + O=C=O
Conditions	mass density [kg/m3]
313 K, x1 = 0.00173	436.05
313 K, x1 = 0.00309	492.75
313 K, x1 = 0.00442	517.19
313 K, x1 = 0.00567	538.22
313 K, x1 = 0.00686	556.08
333 K, x1 = 0.00241	316.53
333 K, x1 = 0.00416	366.67
333 K, x1 = 0.00576	397.42
333 K, x1 = 0.00739	413.01
333 K, x1 = 0.00874	436.26
353 K, x1 = 0.00318	239.41
353 K, x1 = 0.00558	273.18
353 K, x1 = 0.00729	314.05
353 K, x1 = 0.00921	331.22
353 K, x1 = 0.01094	348.73

CCCCC(O)CO (stereo not given) [1,2-hexanediol] + O=C=O
Conditions	mass density [kg/m3]
313 K, x1 = 0.00073	677.07
313 K, x1 = 0.00136	730.15
313 K, x1 = 0.00197	756.91
313 K, x1 = 0.00256	778.16
313 K, x1 = 0.0031	802.54
333 K, x1 = 0.00091	547.92
333 K, x1 = 0.00169	589.92
333 K, x1 = 0.00241	619.81
333 K, x1 = 0.00312	638.84
333 K, x1 = 0.0038	655.62
353 K, x1 = 0.00109	457.46
353 K, x1 = 0.00196	506.95
353 K, x1 = 0.00281	530.61
353 K, x1 = 0.00363	549.26
353 K, x1 = 0.00442	563.72
